Laboratory results reported in patent US20240228469A1, “PCSK9 INHIBITORS AND METHODS OF USE THEREOF” (AstraZeneca AB, priority 2022, published 2024).

How the values were obtained:
[1] = target: GSK3β (Glycogen synthase kinase-3 beta) (Homo sapiens, UniProt P49841); assay: Assay 6 GSK3β assay (ThermoFisher Z-Lyte FRET); assay type: biochemical; settings: ATP Conc: 10 μM, geometric mean; read-out: Assay 6 (GSK3β FRET-Z-Lyte Cr) GMean IC50
Experimental: This assay measures the activity of the compounds at GSK33 (Glycogen synthase kinase-3 beta).
The test compounds were screened in 1% DMSO (final) in the well. For 10 point titrations, 3-fold serial dilutions are conducted from the starting concentration of 10 PM.
Bar-coded Corning, low volume NBS, black 384-well plate • 1. 2.5 μL—4× Test Compound or 100 nL 100× plus 2.4 μL kinase buffer • 2. 5 μL—2× Peptide/Kinase Mixture • 3. 2.5 μL—4×ATP Solution • 4. 30-second plate shake • 5. 60-minute Kinase Reaction incubation at room temperature • 6. 5 μL—Development Reagent Solution • 7. 30-second plate shake • 8. 60-minute Development Reaction incubation at room temperature • 9. Read on fluorescence plate reader and analyse the data
In step 2, the 2×GSK3β (GSK3 beta)/Ser/Thr (Glycogen synthase kinase-3 beta/Serine/Threonine) 09 mixture is prepared in 50 mM HEPES (4-(2-hydroxyethyl)-1-piperazineethanesulfonic acid) pH 7.5, 0.01% BRIJ-35, 10 mM MgCl2, 1 mM EGTA (egtazic acid). The final 10 μL Kinase Reaction consists of 0.22-0.92 ng GSK3β (GSK3 beta) and 2 PM Ser/Thr 09 in 50 mM HEPES pH 7.5, 0.01% BRIJ-35, 10 mM MgCl2, 1 mM EGTA.
In step 3 the ATP Solution is diluted to a 4× working concentration in Kinase Buffer (50 mM HEPES pH 7.5, 0.01% BRIJ-35, 10 mM MgCl2, 1 mM EGTA).
In Step 6 the Development Reagent is diluted 1:512 in Development Buffer (10× Novel PKC Lipid Mix: 2 mg/mL Phosphatidyl Serine, 0.2 mg/mL DAG in 20 mM HEPES, pH 7.4, 0.3% CHAPS).
SelectScreen® Kinase Profiling Service uses XLfit from IDBS. The dose response curve is curve fit to model number 205 (sigmoidal dose-response model).

PCSK9 = PCSK9 (Homo sapiens, UniProt Q8NBP7, G670E/V474I); assay: biochemical
[2] = target: T1, potassium ion channel hERG (Homo sapiens, UniProt Q12809); assay: Assay 5 hERG assay (patch clamp, CHO cells over-expressing hERG); assay type: cell-based; settings: SyncroPatch 384PE, room temperature, geometric mean, read-out: Assay 5 (hERG Hu CHO if EPh CR-Syncro) GMean IC50
T1 construct: expressed in transfected cells; host or cells: Chinese hamster ovary K1 (CHO)
Experimental: This assay (human Ether-d-go-go-Related Gene) measures activity of the compounds at the potassium ion channel hERG (human Ether-d-go-go-Related Gene).
Experiments were performed on the SyncroPatch 384PE high throughput patch clamp platform at room temperature and medium resistance chips with 4 patch holes per site. Chinese hamster ovary K1 (CHO) cell lines over-expressing the ion channel of choice (hERG) were used in assay-ready format and kept in liquid nitrogen or were used from live culture. Cells were either thawed and diluted in HBSS or were detached from flasks and resuspended in HBSS. HBSS comprised 140 mM NaCl, 4 mM KCl, 10 mM HEPES and 5 mM Glucose (pH7.4). The internal patch clamp solution was KF 120 mM, KCl 20 mM, HEPES 10 mM, EGTA 10 mM, and 25 PM Escin (pH 7.2). After the sealing process was complete, the external solution was exchanged for external patch clamp solution comprising NaCl 80 mM, KCl 4 mM, HEPES 10 mM, CaCl2 2 mM, MgCl2 1 mM, glucose 5 mM, and NMDG 60 mM (pH 7.4). All solutions were stored at room temperature, except Escin, which was stored at 4° C. All test compounds were dispensed in greiner-bio 384 well plates and tested in a 6 point cumulative assay (final DMSO concentration 0.33%). Only wells that passed previously agreed acceptance criteria for this platform were used in this analysis (30 MegaOhm seal resistance, Z prime >0.4 and current size >0.2 nA). […]

T1 sequence (Q12809 whole entry): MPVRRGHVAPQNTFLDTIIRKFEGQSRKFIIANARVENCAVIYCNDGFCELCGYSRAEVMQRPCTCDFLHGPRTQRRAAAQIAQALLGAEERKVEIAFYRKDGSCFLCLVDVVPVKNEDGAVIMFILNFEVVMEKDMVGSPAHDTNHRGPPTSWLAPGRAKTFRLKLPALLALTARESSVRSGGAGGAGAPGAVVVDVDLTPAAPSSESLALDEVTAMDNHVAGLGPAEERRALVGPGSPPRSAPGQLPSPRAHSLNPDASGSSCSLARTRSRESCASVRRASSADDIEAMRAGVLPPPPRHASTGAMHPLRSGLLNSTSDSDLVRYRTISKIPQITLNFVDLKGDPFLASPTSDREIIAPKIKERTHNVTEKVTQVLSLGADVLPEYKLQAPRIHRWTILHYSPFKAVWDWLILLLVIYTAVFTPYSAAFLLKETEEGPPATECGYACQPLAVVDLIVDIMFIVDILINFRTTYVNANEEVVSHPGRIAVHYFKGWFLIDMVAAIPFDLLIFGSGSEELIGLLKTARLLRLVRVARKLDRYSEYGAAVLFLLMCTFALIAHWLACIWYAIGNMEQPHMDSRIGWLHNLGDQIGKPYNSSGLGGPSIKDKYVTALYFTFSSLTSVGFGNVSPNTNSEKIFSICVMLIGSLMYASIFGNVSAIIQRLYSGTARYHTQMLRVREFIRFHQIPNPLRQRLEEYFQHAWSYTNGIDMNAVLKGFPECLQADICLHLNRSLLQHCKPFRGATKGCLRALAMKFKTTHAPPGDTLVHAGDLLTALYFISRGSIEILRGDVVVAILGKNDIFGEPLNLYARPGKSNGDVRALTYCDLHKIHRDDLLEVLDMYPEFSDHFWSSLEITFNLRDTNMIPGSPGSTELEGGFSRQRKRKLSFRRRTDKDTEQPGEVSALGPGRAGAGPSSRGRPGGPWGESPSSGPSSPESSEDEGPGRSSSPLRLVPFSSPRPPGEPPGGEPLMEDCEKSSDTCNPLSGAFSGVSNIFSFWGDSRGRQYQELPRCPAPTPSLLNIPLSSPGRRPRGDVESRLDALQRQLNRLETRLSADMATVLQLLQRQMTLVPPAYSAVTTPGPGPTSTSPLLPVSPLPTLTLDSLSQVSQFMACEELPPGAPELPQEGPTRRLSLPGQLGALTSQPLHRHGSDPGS
Chain of PCSK9 (Q8NBP7 with tags, fused parts or gaps V474I/G670E): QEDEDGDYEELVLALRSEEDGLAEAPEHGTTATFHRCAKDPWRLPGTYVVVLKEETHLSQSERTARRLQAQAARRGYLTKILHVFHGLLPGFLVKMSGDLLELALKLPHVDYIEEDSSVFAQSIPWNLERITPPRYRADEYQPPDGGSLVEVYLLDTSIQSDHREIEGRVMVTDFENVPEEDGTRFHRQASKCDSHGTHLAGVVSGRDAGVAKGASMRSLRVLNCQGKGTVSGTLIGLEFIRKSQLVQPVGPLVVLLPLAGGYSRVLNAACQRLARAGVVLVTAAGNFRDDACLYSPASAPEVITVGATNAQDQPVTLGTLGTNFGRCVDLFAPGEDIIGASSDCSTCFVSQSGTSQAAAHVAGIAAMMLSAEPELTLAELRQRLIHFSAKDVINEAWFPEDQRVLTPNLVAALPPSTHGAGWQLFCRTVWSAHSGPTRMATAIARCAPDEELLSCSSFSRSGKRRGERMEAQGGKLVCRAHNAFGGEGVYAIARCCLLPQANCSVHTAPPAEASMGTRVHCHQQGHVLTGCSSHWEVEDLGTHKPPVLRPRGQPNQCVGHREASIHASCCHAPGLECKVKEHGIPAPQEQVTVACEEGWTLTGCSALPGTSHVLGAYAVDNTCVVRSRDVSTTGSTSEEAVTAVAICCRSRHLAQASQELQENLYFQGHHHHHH
Chain of GSK3β (Glycogen synthase kinase-3 beta) (P49841 whole entry): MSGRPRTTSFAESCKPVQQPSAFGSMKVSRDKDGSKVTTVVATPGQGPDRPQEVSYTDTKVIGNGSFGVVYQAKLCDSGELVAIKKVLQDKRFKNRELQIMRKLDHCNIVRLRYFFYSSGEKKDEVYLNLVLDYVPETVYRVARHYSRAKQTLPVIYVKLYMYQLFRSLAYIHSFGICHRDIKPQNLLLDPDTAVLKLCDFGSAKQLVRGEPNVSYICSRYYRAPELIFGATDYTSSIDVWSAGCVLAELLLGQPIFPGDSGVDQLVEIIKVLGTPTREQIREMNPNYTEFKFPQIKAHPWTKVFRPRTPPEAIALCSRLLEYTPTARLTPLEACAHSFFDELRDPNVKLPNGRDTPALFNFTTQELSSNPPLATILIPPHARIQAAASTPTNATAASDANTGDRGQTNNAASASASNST

Compound: Cn1cccc(-c2ccc(N[C@H]3CC[C@H](Nc4ncc(C5CC5)nn4)C3)nc2)c1=O [Example 60, 6′-(((1S,3S)-3-((6-Cyclopropyl-1,2,4-triazin-3-yl)amino)cyclopentyl)amino)-1-methyl-[3,3′-bipyridin]-2(1H)-one]
- IC50 [1]: > 10 µM
- IC50 (PCSK9): 0.0091 µM
- IC50 [2]: 21 µM

Compound: N#Cc1ccc(F)c(-c2ccc(N[C@H]3CC[C@H](Nc4ncc(C5CC5)nn4)C3)nc2)n1 [Example 61, 6′-(((1S,3S)-3-((6-Cyclopropyl-1,2,4-triazin-3-yl)amino)cyclopentyl)amino)-3-fluoro-[2,3′-bipyridine]-6-carbonitrile]
- IC50 [1]: > 10 µM
- IC50 (PCSK9): 0.184 µM
- IC50 [2]: 5.6 µM

Compound: NC(=O)CNC(=O)c1cnc(N[C@H]2CC[C@H](Nc3ccc(-n4ccccc4=O)cn3)C2)nn1 [Example 68, N-(2-Amino-2-oxoethyl)-3-(((1S,3S)-3-((2-oxo-2H-[1,3′-bipyridin]-6′-yl)amino)cyclopentyl)amino)-1,2,4-triazine-6-carboxamide]
- IC50 [1]: > 10 µM
- IC50 (PCSK9): 0.168 µM
- IC50 [2]: > 40 µM

Compound: Cn1cccc(-c2cnc(N[C@H]3CC[C@H](Nc4ncc(C5CC5)nn4)C3)cn2)c1=O [Example 113, 3-(5-(((1S,3S)-3-((6-Cyclopropyl-1,2,4-triazin-3-yl)amino)cyclopentyl)amino)pyrazin-2-yl)-1-methylpyridin-2(1H)-one]
- IC50 [1]: > 10 µM
- IC50 (PCSK9): 0.041 µM
- IC50 [2]: > 40 µM

Compound: Cn1cccc(-c2cnc(N[C@H]3CC[C@H](Nc4ncc(C5CC5)nn4)C3)nc2)c1=O [Example 115, 3-(2-(((1S,3S)-3-((6-Cyclopropyl-1,2,4-triazin-3-yl)amino)cyclopentyl)amino)pyrimidin-5-yl)-1-methylpyridin-2(1H)-one]
- IC50 [1]: > 10 µM
- IC50 (PCSK9): 0.017 µM
- IC50 [2]: > 40 µM

Compound: O=c1cccnn1-c1cnc(N[C@H]2CC[C@H](Nc3ncc(C4CC4)nn3)C2)nc1 [Example 119, 2-(2-(((1S,3S)-3-((6-Cyclopropyl-1,2,4-triazin-3-yl)amino)cyclopentyl)amino)pyrimidin-5-yl)pyridazin-3(2H)-one]
- IC50 [1]: > 10 µM
- IC50 (PCSK9): 0.073 µM
- IC50 [2]: > 40 µM

Compound: O=c1ccncn1-c1cnc(N[C@H]2CC[C@H](Nc3ncc(C4CC4)nn3)C2)nc1 [Example 120, 2′-(((1S,3S)-3-((6-Cyclopropyl-1,2,4-triazin-3-yl)amino)cyclopentyl)amino)-6H-[1,5′-bipyrimidin]-6-one]
- IC50 [1]: > 10 µM
- IC50 (PCSK9): 0.143 µM
- IC50 [2]: > 40.1 µM

Compound: CN(CCO)C(=O)c1cnc(N[C@H]2CC[C@H](Nc3ccc(-n4ccccc4=O)cn3)C2)nn1 [Example 151, N-(2-Hydroxyethyl)-N-methyl-3-(((1S,3S)-3-((2-oxo-2H-[1,3′-bipyridin]-6′-yl)amino)cyclopentyl)amino)-1,2,4-triazine-6-carboxamide]
- IC50 [1]: > 10 µM
- IC50 (PCSK9): 2.25 µM
- IC50 [2]: > 40.1 µM

Compound: C#CCN(C)C(=O)c1cnc(N[C@H]2CC[C@H](Nc3ccc(-n4ccccc4=O)cn3)C2)nn1 [Example 152, N-Methyl-3-(((1S,3S)-3-((2-oxo-2H-[1,3′-bipyridin]-6′-yl)amino)cyclopentyl)amino)-N-(prop-2-yn-1-yl)-1,2,4-triazine-6-carboxamide]
- IC50 [1]: > 10 µM
- IC50 (PCSK9): 0.244 µM
- IC50 [2]: > 40.1 µM

Compound: COc1c(-c2nnn[nH]2)ccc(F)c1-c1ccc(N[C@H]2CC[C@H](Nc3ncc(C4CC4)nn3)C2)nc1 [Example 169, (1S,3S)—N^1-(6-Cyclopropyl-1,2,4-triazin-3-yl)-N^3-(5-(6-fluoro-2-methoxy-3-(1H-tetrazol-5-yl)phenyl)pyridin-2-yl)cyclopentane-1,3-diamine]
- IC50 [1]: 0.31 µM
- IC50 (PCSK9): 0.027 µM
- IC50 [2]: > 40.1 µM

Compound: Cc1cnc(N[C@H]2CC[C@H](Nc3ccc(-n4ccc(C#N)cc4=O)cn3)C2)nn1 [Example 183, 6′-(((1S,3S)-3-((6-Methyl-1,2,4-triazin-3-yl)amino)cyclopentyl)amino)-2-oxo-2H-[1,3′-bipyridine]-4-carbonitrile]
- IC50 [1]: > 10 µM
- IC50 (PCSK9): 0.03 µM
- IC50 [2]: > 40.1 µM

Compound: Cc1cnc(N[C@H]2CC[C@H](Nc3ccc(-n4nc(Cl)ccc4=O)cn3)C2)nn1 [Example 222]
- IC50 [1]: > 10 µM
- IC50 (PCSK9): 0.0083 µM
- IC50 [2]: > 40.1 µM

Compound: Cc1cnc(N[C@H]2CC[C@H](Nc3ccc(-c4ccccc4C#N)cn3)C2)nn1 [Example 247, 2-(6-(((1S,3S)-3-((6-Methyl-1,2,4-triazin-3-yl)amino)cyclopentyl)amino)pyridin-3-yl)benzonitrile]
- IC50 [1]: > 10 µM
- IC50 (PCSK9): 0.075 µM
- IC50 [2]: 6.6 µM

Compound: Cc1cnc(N[C@H]2CC[C@H](Nc3ccc(-c4ncccc4C)cn3)C2)nn1 [Example 248]
- IC50 [1]: > 10 µM
- IC50 (PCSK9): 0.013 µM
- IC50 [2]: > 40.1 µM

Compound: Cc1cnc(N[C@H]2CC[C@H](Nc3ccc(-n4nc(C)cc4C)cn3)C2)nn1 [Example 249]
- IC50 [1]: > 10 µM
- IC50 (PCSK9): 0.016 µM
- IC50 [2]: > 40.1 µM

Compound: Cc1cnc(N[C@H]2CC[C@H](Nc3ccc(-n4c(C)nc(C)c4C#N)cn3)C2)nn1 [Example 250, 2,4-Dimethyl-1-(6-(((1S,3S)-3-((6-methyl-1,2,4-triazin-3-yl)amino)cyclopentyl)amino)pyridin-3-yl)-1H-imidazole-5-carbonitrile]
- IC50 [1]: > 10 µM
- IC50 (PCSK9): 0.108 µM
- IC50 [2]: > 40.1 µM

Compound: Cc1nnc(N[C@H]2CC[C@H](Nc3ccc(-n4ccccc4=O)cn3)C2)[nH]c1=O [Example 254, 6′-(((1S,3S)-3-((6-Methyl-5-oxo-4,5-dihydro-1,2,4-triazin-3-yl)amino)cyclopentyl)amino)-2H-[1,3′-bipyridin]-2-one]
- IC50 [1]: 6.14 µM
- IC50 (PCSK9): 0.33 µM
- IC50 [2]: > 40.1 µM

Compound: O=c1ccccn1-c1ccc(N[C@H]2CC[C@H](Nc3ncc(Cl)nn3)C2)nc1 [Example 255, 6′-(((1S,3S)-3-((6-Chloro-1,2,4-triazin-3-yl)amino)cyclopentyl)amino)-2H-[1,3′-bipyridin]-2-one]
- IC50 [1]: 5.33 µM
- IC50 (PCSK9): 0.078 µM
- IC50 [2]: > 40.1 µM

Compound: CN(C)c1cnc(N[C@H]2CC[C@H](Nc3ccc(-n4ccccc4=O)cn3)C2)nn1 [Example 256, 6′-(((1S,3S)-3-((6-(Dimethylamino)-1,2,4-triazin-3-yl)amino)cyclopentyl)amino)-2H-[1,3′-bipyridin]-2-one]
- IC50 [1]: 1.68 µM
- IC50 (PCSK9): 0.119 µM
- IC50 [2]: > 40.1 µM

Compound: O=c1ccccn1-c1ccc(N[C@H]2CC[C@H](Nc3ncc(-c4ccn[nH]4)nn3)C2)nc1 [Example 257, 6′-(((1S,3S)-3-((6-(1H-Pyrazol-5-yl)-1,2,4-triazin-3-yl)amino)cyclopentyl)amino)-2H-[1,3′-bipyridin]-2-one]
- IC50 [1]: 2.81 µM
- IC50 (PCSK9): 0.062 µM
- IC50 [2]: > 40.1 µM

Compound: CCSc1cnc(N[C@H]2CC[C@H](Nc3ccc(-n4ccccc4=O)cn3)C2)nn1 [Example 258, 6′-(((1S,3S)-3-((6-(Ethylthio)-1,2,4-triazin-3-yl)amino)cyclopentyl)amino)-2H-[1,3′-bipyridin]-2-one]
- IC50 [1]: 0.237 µM
- IC50 (PCSK9): 0.015 µM
- IC50 [2]: 26.1 µM

Compound: CC(=O)c1cnc(N[C@H]2CC[C@H](Nc3ccc(-n4ccccc4=O)cn3)C2)nn1 [Example 260, 6′-(((1S,3S)-3-((6-Acetyl-1,2,4-triazin-3-yl)amino)cyclopentyl)amino)-2H-[1,3′-bipyridin]-2-one]
- IC50 [1]: 1.32 µM
- IC50 (PCSK9): 0.101 µM
- IC50 [2]: > 40 µM
